Test results: US9226503B2, “Composition and method for attraction of emerald ash borer Agrilus planipennis fairmaire (coleoptera: buprestidae)” (Her Majesty the Queen in Right of Canada, as represented by …, priority 2011, dated 2016)

Key:
[1] = Effect of light on (3Z)-lactone (isomerization); assay type: physicochemical; settings: for isomerization in direct sunlight: quartz cuvette or surface of female cadavers, 2-3 days
Method: To determine whether light would promote the isomerization from (3Z) to (3E)-lactone, 20 mg of (3Z)-lactone was placed neat on a glass slide 10 mm below a UV light (UVG-54 handheld UV-lamp, 254 nm, 6w; UVP Upland Calif., USA) for three d. Subsamples (taken as 1 mg in a pipette) were analyzed by GC/MS at regular intervals and the ratio of (3E):(3Z)-lactone was recorded. In addition, 6 mg of each of (3Z)- and (3E)-lactones (neat) were coated on the quartz surface of a cuvette and exposed outdoors to sunlight at 11° C. mean temperature for 9 d for an average of 5 h a day. Finally, (3Z)-lactone was coated (4 mg) on the dorsal surface of abdomen and […] of 3 female EAB cadavers that were exposed to sunlight for 6 h per day for 1, 2 or 3 d at 10° C. mean temperature; cadavers were stored at 4° C. between sunny days. The lactones were removed from cuvettes and cadavers with hexane washing and analysed by GC/MS to determine the E:Z ratio.

A. planipennis = assay: Field trapping experiment 3 (2010), green sticky prism traps, Ontario and Michigan; assay type: in vivo, Agrilus planipennis; settings: lactone alone
Method: Field trapping. Three trapping experiments were carried out in green ash plantations (F. pennsylvanica Marsch) with low-to-moderate A. planipennis populations about 40 km southeast of Sarnia, Ontario (42° 58′ 0 N, 82° 24′ 0 W) in 2008, 2009 and 2010. Trees at these sites were generally healthy in appearance with low or no signs of decline, and only a small number of trees had obvious signs/symptoms of infestation by A. planipennis. In Ontario sites, trees were 20-25 years old, 4-6 m tall, 10-15 cm in diameter, and spaced about 2 m apart within a row and 2.5 m between rows. In 2010, the trapping experiment was replicated at four sites in Michigan, USA, in addition to the sites in Ontario. Sites in Michigan were 10-100 years old, 10-30 m tall, 15-70 cm in diameter, and located in a mixed woodlot. […] Traps were checked every 2 weeks and A. planipennis were collected, counted and sexed. […]
The effect of each attractant on mean catch of female and male A. planipennis was analyzed independently using ANOVA and a randomized complete block design. Sites were analyzed separately in 2009 due to differences in sex ratios. In 2010, sites in Ontario were analyzed separately from those in Michigan due to the considerable differences in stand conditions and height of traps with respect to the ash canopy. […]

Row | Structure (SMILES) | isomerization in direct sunlight [1] | trap catch compared to unbaited control (A. planipennis; green traps, 2010, Ontario and Michigan) | effect of storing in a pyrex container (filters out UV-light) [1] | conjugated isomer formed on UV exposure ([1]; UV lamp 254 nm, GC/MS) | (3E):(3Z) ratio, initial lactone sample ([1]; before UV exposure) | (3E):(3Z) ratio after exposure to UV light ([1]; neat, UV lamp 254 nm, three d) | stability to isomerization under normal laboratory fluorescent lighting ([1]; preliminary studies) | trap captures compared to unbaited control, sites in Ontario (A. planipennis; green traps in the canopy, Ontario, P<0.02)
1 | O=C1C/C=C/CCCCCCCCO1 [(3E)-lactone, (3E)-dodecen-12-olide] | very slow isomerization | did not affect trap catch | – | – | – | – | – | –
2 | O=C1C/C=C\CCCCCCCCO1 [(3Z)-lactone, (3Z)-dodecen-12-olide] | very slow isomerization | – | preventing photoisomerisation | < 1% | 0.028 | 0.60 | very stable | slight increase in trap captures
